Measurements reported in patent US20100047191A1, “NOVEL USE” (priority 2007, published 2010).

Key:
[1] = 20-day in vitro erosion cycling study (microhardness); set-up: species or system human
Source text: Human enamel specimens (3×3 mm) were ground and polished using silicon carbide paper. The top side of the specimens was ground using 1200-grit paper and then serially polished using 4000-grit paper followed by […] diamond polishing suspension. Each specimen was mounted on the end of an acrylic rod (¼″ diameter×2″ long) using superglue. The sides of each specimen were covered with an epoxy resin so that only the enamel surface was exposed. Eighteen specimens per group were used for the study. Each group was composed of 3 subgroups of 6 specimens. Initial hardness of the sound specimens was determined using a Vickers hardness indenter by applying a load of 200 g for 15 seconds. The average specimen microhardness was determined from four indentations on the surface of each specimen. Only specimens with a sound surface hardness of between 300 and 350 were accepted. A 50:50 mixture of pooled, human saliva and a mineral solution was used as the remineralisation medium in all treatment regimens, and the demineralising solution was 1% citric acid, pH 3.8. The four treatments considered were: Group A) Deionised water, Group B) 300 ppm Fluoride, Group C) 0.50 wt % ZnO in deionized water, Group D) 0.50 wt % ZnO in 300 ppm Fluoride. […] The cyclic treatment regimen consisted of five, two-minute acid challenges in the demineralizing solution and three, two-minute treatment periods (with stirring at 350 rpm). After each treatment, the specimens were rinsed with running deionized water and then placed back into the saliva remineralization system. This regimen was repeated for 10 days, after which time the specimens were analysed by remeasuring their microhardness. A further 10 days of cycling was then performed and a 20 day microhardness value measured.
Statistical analysis of the data above in Graph 4 was performed with a one-way analysis of variance using Sigma Stat (3.0) Software. ANOVA indicated a significant difference so pair wise comparisons between the groups was conducted (Student Newman Keuls test).

[2] = Enamel anti-caries softening microhardness study (lactic acid buffer); set-up: species or system human; settings: two cycles of 2 minute treatment and two hours 0.1M lactic acid buffer pH 4.5
Method: The study performed involved incubation of human enamel in 0.1M lactic acid buffer (pH 4.5), following a 2 minute treatment with one of the following four formulations: (A) 0.5% suspension of nano ZnO. […] (D) de-ionised water. The zinc oxide used was Nanoshield ZN-3008C as described above in Example 4. Specimens were washed with water in between treatments and erosion procedures. The acid exposure time was two hours, after which the specimens were rinsed in de-ionised water and re-treated with the appropriate formulation for 2 minutes. The specimens then were placed into the lactic acid for a further two hours. After the acid challenge they were washed thoroughly with de-ionised water and the microhardness measured. Six indents were obtained for each enamel specimen and each treatment was performed on six individual specimens (n=6).
The values for enamel hardness have been normalised relative to the individual baseline microhardness values, thus data at subsequent time points reflects softening of the enamel. The error bars in Graph 9 represent standard deviations.

[3] = Hydroxyapatite microplate erosion method (phosphate release after 1% citric acid, pH 3.8); settings: Example 7
Method: The wells of 96-well 200 μl microplates were filled with a concentrated suspension of high resolution hydroxyapatite (HA) powder (20 g HA in 200 ml acetone). The plates were allowed to dry under agitation (50 rpm on an orbital shaker) and then washed thoroughly with deionised water to remove any loose HA. For erosion experiments, the wells of the HA coated microplates were filled with deionised water and left to hydrate for 60 mins. The water was then removed and each of the 8 wells of one lane of the microplate filled with 200 μl of one of the agents to be tested. Each plate contained 12 lanes, so 6 agents could be tested in duplicate (at n=8) in each microplate. The actives were left in the wells for 30 mins under agitation, after which time the plates were again washed thoroughly with deionised water. The erosive challenge used for the study was an orange juice mimic, 1% citric acid, pH 3.8. The wells of the plate were exposed to 200 μl of the citric acid solution under agitation for 30 mins. After the acid challenge, 50 μl of the citric acid was removed from each well and placed into the corresponding well of a new 96-well microplate. 50 μl of vanadomolybdate reagent was then added to each well and after 5 mins, the absorbance of the solution in each well at 450 nm was read using a microplate plate reader. The test agents assessed using this technique were nanoparticulate zinc oxide aqueous suspension, 0.5 wt % in water, stabilised with both anionic and cationic dispersants (Nanoshield ZN-3008C and Nanoshield ZN-3014A respectively, both 70 nm average particle size and obtained from Nanophase Technologies, 1319 Marquette Drive, Romeoville, Ill. 60446. USA).
The chart contains data from one microplate, where treatments have been carried out in duplicate at n=8 each time, as described above. […] The positive control used was 300 ppm fluoride, and the negative control was deionised water.
An additional experiment was performed as described in Example 4, where the stabilising agent for the nanoparticulate zinc oxide (0.5 wt % suspension in water) was sodium hexametaphosphate (HMP) present in an amount of 2 wt % with respect to the zinc oxide (ie present in an amount of 0.01 wt %). […] The nanoparticulate zinc oxide was tested in the presence and absence of fluoride again, and at two different pH values (pH 7 and pH 9).
The experiments were performed as described in Example 4 above, using one side of a hydroxyapatite microplate (n=8). The test agents assessed in this case were a) 0.5 wt % Nanoshield ZN-3008C in water, b) 0.5 wt % zinc acetate, c) 0.5 wt % zinc citrate and d) 0.5 wt % zinc oxide (bulk material). […] Positive and negative controls used were 225 ppm fluoride and deionised water respectively.
A final hydroxyapatite microplate experiment was performed as described in Examples 4 and 5 where the stabilising agent for the nanoparticulate zinc oxide was either polyvinyl pyrrolidone (PVP) or Propylene glycol. […] The nanoparticulate zinc oxide was tested in the presence of fluoride in each case.

[4] = repeated acidic erosive challenges; placebo 13.9 μm; cited from earlier work
[5] = acidic acetate buffer at pH 4.5; cited from earlier work
[6] = 0.5 wt % in 225 ppm fluoride solution, Graph 6
[7] = 0.5 wt % in deionised water, no fluoride, Graph 5

## [F-].[Na+] [300 ppm F, sodium fluoride]
[1]; 10 days cycling
  Change at 10 days (microhardness vs lesion baseline, mean): −64.6
[1]; 10 days cycling: five 2-min 1% citric acid challenges and three 2-min treatments daily, saliva remineralisation
  Post 10 days (Vickers microhardness, mean): 189.5
[1]; 20 days cycling
  Change at 20 days (microhardness vs lesion baseline, mean): −20.1
  Post 20 days (Vickers microhardness, mean): 234.0
[2]
  protection from the lactic acid buffer challenge: approximately 70%
[2]; n=6
  % VHN compared to baseline, After treatment/acid challenge: 70%

## O=C([O-])CC(O)(CC(=O)[O-])C(=O)[O-].O=C([O-])CC(O)(CC(=O)[O-])C(=O)[O-].[Zn+2].[Zn+2].[Zn+2] [Zinc citrate, zinc citrate]
[3]; [6]
  preventing the demineralisation of hydroxyapatite, combination with 225 ppm fluoride compared with 225 ppm fluoride alone: statistically inferior to fluoride alone
  preventing the demineralisation of hydroxyapatite, combination with 225 ppm fluoride compared with water: statistically superior to water
[4]
  depth of complete mineral loss: 10.7 μm

## CC(=O)[O-].CC(=O)[O-].[Zn+2] [zinc acetate]
[3]; [6]
  preventing the demineralisation of hydroxyapatite, combination with 225 ppm fluoride compared with 225 ppm fluoride alone: directionally superior but statistically equivalent to 225 ppm fluoride alone
[3]; [7]
  preventing demineralisation of hydroxyapatite, compared with water: statistically superior to water
  preventing the demineralisation of hydroxyapatite, compared with 225 ppm fluoride: statistically inferior to both the stabilised nanoparticulate zinc oxide and 225 ppm fluoride
[5]
  decreasing acid dissolution of hydroxyapatite, compared with sodium fluoride: almost as effective as sodium fluoride
